# Measurements reported in patent publication US9371521B2, “Substituted pyrazinedithiol reducing agents” (Wisconsin Alumni Research Foundation, priority 2014, dated 2016).
# Values joined by “and” are separate entries in the source; they are usually repeats but may differ in a detail not shown here. Equal values may be shown once. Read-outs that look alike come from different tables or passages of the source.
# Assays:
# [1] = literature value; cited from earlier work
# [2] = literature value [37]; cited from earlier work
# [3] = Reduction potential from equilibrium reaction with oxidized DTT (HPLC, Nernst equation); type: physicochemical; settings: for Keq of equilibrium reaction with DTTox / Disulfide E°′ (reduction potential of oxidized form): 50 mM potassium phosphate buffer, pH 7.0, EDTA 2 mM, 24 h; for Disulfide E°′ (reduction potential of oxidized form): assuming −0.327 V for DTT, this work
# [4] = Reduction kinetics on oxidized βME; type: physicochemical; settings: for kobs for reduction of βMEox: 5 mM each
# papain-Cys25-S—S—CH3 = target: T1, papain-Cys25-S—S—CH3 (Carica papaya, UniProt P00784); assay: Reactivation of papain (reduction of active-site mixed disulfide); type: biochemical; settings: for kobs for reduction of papain-Cys25-S-S-CH3: 0.10 M imidazole-HCl buffer, pH 7.0, EDTA 2 mM
# T1 construct: Papain (lyophilized powder from papaya latex); purchased Sigma-Aldrich (St. Louis, Mo.); host or cells: papaya latex (natural source)
# T1 sequence (P00784 134-345): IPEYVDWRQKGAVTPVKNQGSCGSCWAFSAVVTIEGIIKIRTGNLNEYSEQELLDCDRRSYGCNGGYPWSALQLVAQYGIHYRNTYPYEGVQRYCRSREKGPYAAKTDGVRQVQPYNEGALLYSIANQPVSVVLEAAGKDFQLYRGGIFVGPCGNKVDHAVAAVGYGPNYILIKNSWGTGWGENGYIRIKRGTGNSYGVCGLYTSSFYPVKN
# Method: (§1) Commercial reagents were used without further purification. Dithiothreitol (DTT) was from Research Products International (Mt. Prospect, Ill.). […].
# Papain was inactivated by forming a mixed disulfide upon treatment of its active-site cysteine (Cys25) with S-methyl methanethiosulfonate following a procedure reported previously. A 1.25 mL solution of papain-Cys25-S—S—CH3 (4.4×10^−6 M) in a degassed 0.10 M imidazole-HCl buffer, pH 7.0, containing EDTA (2 mM) was placed in a 1.5-mL LoBind Eppendorf tube. At time t=0, 10 μL of a 1 mM stock solution of BMMP was added, and a timer was started. […] A unit of protein is defined as the amount of enzyme required to produce 4-nitroaniline at a rate of 1 μmol/min. The units of active papain at each time point were calculated by using an extinction coefficient for 4-nitroaniline of ε=8,800 M^−1cm^−1 at 410 nm. […] Y=enzymatic activity (%) at any time point was determined by dividing the number of active units of enzyme by the possible number of units in the solution, and plotted in FIG. 2A. To determine the value of the second-order rate constant (kobs) for the reducing agents, the second order rate equation (eq 4) was transformed into eq 5, which was fitted to the data with the program Prism 5.0.
# [5] = target: T2, creatine kinase-Cys283-S-S-G (Oryctolagus cuniculus, UniProt P00563); assay: Reactivation of creatine kinase (reduction of mixed disulfide with glutathione); type: biochemical, rabbit; settings: for kobs for reduction of creatine kinase-Cys283-S-S-G: 0.10 M imidazole-HCl buffer, pH 7.0, EDTA 2 mM
# T2 construct: creatine kinase (lyophilized powder from rabbit muscle); purchased Sigma-Aldrich (St. Louis, Mo.); host or cells: rabbit muscle (natural source)
# T2 sequence (P00563 whole entry): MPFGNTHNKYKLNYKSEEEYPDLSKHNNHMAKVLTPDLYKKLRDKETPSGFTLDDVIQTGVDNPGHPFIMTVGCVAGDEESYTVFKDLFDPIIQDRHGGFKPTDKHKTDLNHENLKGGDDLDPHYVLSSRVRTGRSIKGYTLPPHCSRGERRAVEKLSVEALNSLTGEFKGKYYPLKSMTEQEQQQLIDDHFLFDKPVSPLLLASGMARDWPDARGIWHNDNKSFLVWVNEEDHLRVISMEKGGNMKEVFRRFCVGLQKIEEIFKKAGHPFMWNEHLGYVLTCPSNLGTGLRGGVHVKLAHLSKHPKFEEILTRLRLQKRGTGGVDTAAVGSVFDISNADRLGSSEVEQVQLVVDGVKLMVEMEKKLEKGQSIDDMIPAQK
# Method: as §1
# [21, 23] Enzymatic activity (%) at particular time points was calculated by dividing the number of active units of enzyme by the possible number of units in solution, and was plotted in FIG. 2B. Values of kobs (Table 2) were determined using eq.
# [6] = Determination of BMMP solubility in buffered water (1H NMR); type: physicochemical; settings: aqueous buffer, thermodynamic from solid; 50 mM sodium phosphate buffer, pH 7.0
# Method: A 20 mM stock solution of 2-butyne-1,4-diol (an ^1H NMR standard) was prepared in 50 mM sodium phosphate buffer, pH 7.0. BMMP was added to a solution containing 1 mL of this buffer and 0.1 mL of D2O until the solution was saturated completely. The mixture was sonicated to ensure complete dissolution and filtered into an NMR tube, and its spectrum was acquired. The solubility of BMMP was determined to be (64±14) mM by integration of the ^1H NMR peak areas of the aryl CH and methylene CH2SH protons for BMMP and the CH2OH peak for 2-butyne-1,4-diol.
# [7] = Determination of thiol pKa values (pH titration monitored by UV absorbance at 238 nm); type: physicochemical
# Method: Thiol pKa values were determined using a Varian Cary 60 UV-Vis spectrophotometer. Kinetic studies on proteins were carried out using a Varian Cary 400 Bio UV-Vis spectrometer with a Cary temperature controller at the Biophysics Instrumentation Facility at Madison (BIF). All NMR spectra were acquired at ambient temperature with a Bruker DMX-400 Avance spectrometer and a Bruker Avance III 500ii with cyroprobe spectrometer at the National Magnetic Resonance Facility at Madison (NMRFAM), and were referenced to TMS or residual protic solvent.
# The thiol pKa values are determined by following a procedure reported previously that exploits the elevated absorbance of the deprotonated thiolate at 238 nm.
# For BMMP determination, in eq 1, CT is the total thiol concentration, εSH^SH is the extinction coefficient of the doubly protonated form of BMMP, εSH^S- is the extinction coefficient of the singly protonated form of BMMP, and εS-^S- is the extinction coefficient of the doubly deprotonated form of BMMP.
# For comparison, the thiol pKa values for DMH were determined in a similar fashion.
# [8] = cited from earlier work
# [9] = target: T2, creatine kinase-Cys283-S-S-G; settings: literature [23]; cited from earlier work
# [10] = pH 5.0, 50 mM sodium acetate buffer
# [11] = pH 7.0, 50 mM potassium phosphate buffer
# [12] = Thiol pKa (second value, in parentheses)
smiles,measurement,setting,value
OC(CS)[C@H](O)CS (mixture of isomers),Disulfide E°′ (reduction potential of oxidized form),[1],−0.327 V^b
"Cc1cnc(C)cn1 [2,5-dimethylpyrazine]",pKa of the conjugate acid,[2],2.1
"SCc1nccnc1CS [BMMP, 2,3-bis(mercaptomethyl)pyrazine]",Keq of equilibrium reaction with DTTox,[3],0.137±0.036
same,Disulfide E°′ (reduction potential of oxidized form),[3],−0.301±0.003 V
same,Free energy by which equilibrium favors reduced BMMP and oxidized DTT,[3]; reduced BMMP + oxidized DTT vs oxidized BMMP + reduced DTT,-1.2 kcal/mol
same,Observed rate of reduction of βMEox at pH 5.0 compared with DTT at pH 7.0,[4]; BMMP pH 5.0 vs DTT pH 7.0,comparable
same,"kobs^BMMP/kobs^DTBA, reduction of βMEox",[4]; pH 5.0,3.6 and 4
same,"kobs^BMMP/kobs^DTT, reduction of βMEox",[4]; pH 5.0,14.1 and 14
same,kobs for reduction of βMEox,[4]; [10],0.0183 ± 0.0007 M⁻¹ s⁻¹
same,"kobs^BMMP/kobs^DMH, reduction of βMEox",[4]; pH 7.0,1.8
same,"kobs^BMMP/kobs^DTBA, reduction of βMEox",[4]; pH 7.0,3.2 and 3
same,"kobs^BMMP/kobs^DTT, reduction of βMEox",[4]; pH 7.0,11.4 and 11
same,kobs for reduction of βMEox,[4]; [11],1.02 ± 0.07 M⁻¹ s⁻¹
same,kobs for reduction of papain-Cys25-S-S-CH3,papain-Cys25-S—S—CH3,1139 ± 62 M⁻¹ s⁻¹
same,"kobs^BMMP/kobs^DTT, reduction of papain Cys25-S—S—CH3",papain-Cys25-S—S—CH3; pH 7.0,13.1 and 13
same,kobs for reduction of creatine kinase-Cys283-S-S-G,[5],476 ± 34 M⁻¹ s⁻¹
same,"kobs^BMMP/kobs^DTBA, reduction of creatine kinase Cys283-S—S-glutathione",[5]; pH 7.0,6.8 and 7
same,"kobs^BMMP/kobs^DTT, reduction of creatine kinase Cys283-S—S-glutathione",[5]; pH 7.0,5.8 and 6
same,solubility,[6],64 ± 14 mM
"CN(C(=O)CS)N(C)C(=O)CS [DMH, N,N′-dimethyl-N,N′ bis(mercaptoacetyl)hydrazine, reference compound]",pKa,"[7]; Thiol pKa (first, lower value)",8 ± 0.2
same,pKa,[7]; [12],9.1 ± 0.1
same,Keq of equilibrium reaction with DTTox,[3],0.0065±0.0020
same,Disulfide E°′ (reduction potential of oxidized form),[3],−0.262±0.004 V and −0.262±0.003 V
same,Rate of reduction of βMEox compared with other dithiols,[4]; pH 7.0,faster than did DTT or DTBA but slower than did BMMP
same,kobs for reduction of βMEox,[4]; [11],0.56 ± 0.04 M⁻¹ s⁻¹
same,"Thiol pKa (first, lower value)",[8]; literature value,7.6
same,"Thiol pKa (second value, in parentheses)",[8]; literature value,8.9
"N[C@H](CS)CCS [DTBA, dithiobutylamine, reference compound]",kobs for reduction of βMEox,[4]; [10],0.0051 ± 0.0004 M⁻¹ s⁻¹
same,kobs for reduction of βMEox,[4]; [11],0.32 ± 0.02 M⁻¹ s⁻¹
same,kobs for reduction of papain-Cys25-S-S-CH3,papain-Cys25-S—S—CH3,950 ± 51 M⁻¹ s⁻¹
same,kobs for reduction of creatine kinase-Cys283-S-S-G,[5],70 ± 2 M⁻¹ s⁻¹
same,Rate of reduction of creatine kinase mixed disulfide compared with DTT,[9],comparable to that of DTT
"O[C@H](CS)[C@H](O)CS [DTT, dithiothreitol, reference compound]",kobs for reduction of βMEox,[4]; [10],0.0013 ± 0.0001 M⁻¹ s⁻¹
same,kobs for reduction of βMEox,[4]; [11],0.090 ± 0.005 M⁻¹ s⁻¹
same,kobs for reduction of papain-Cys25-S-S-CH3,papain-Cys25-S—S—CH3,87 ± 3 M⁻¹ s⁻¹
same,kobs for reduction of creatine kinase-Cys283-S-S-G,[5],82 ± 3 M⁻¹ s⁻¹
same,Fraction in the reactive thiolate form,[8]; neutral pH,less than 1%
same,Disulfide E°′ (reduction potential of oxidized form),[1],−0.327 V
CN(C(=O)CS)N(C)C(=O)CS [drawing 5],"Thiol pKa (first, lower value)",[7],8.0 ± 0.2
same,"Thiol pKa (second value, in parentheses)",[7],9.1 ± 0.1
same,Disulfide E°′ (reduction potential of oxidized form),[3],−0.262 ± 0.004 V^c
N[C@H](CS)CCS [drawing 6],Disulfide E°′ (reduction potential of oxidized form),[1],−0.317 V^d
SCc1nccnc1CS [drawing 7],pKa,"[7]; Thiol pKa (first, lower value)",7.6 ± 0.1
same,pKa,[7]; [12],9
same,Disulfide E°′ (reduction potential of oxidized form),[3],−0.301 ± 0.003 V^c
